The supplement of paper PMC8617591

Key:
[1] = test system: Mycobacterium tuberculosis Erdman (autoluminescent); assay: total FIC50 (Loewe) at 50% inhibition, three-drug combination (log2); higher = more antagonistic
Protocol: (§1)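 DiaMOND equipotent three-drug combination dose responses (10 doses, 1.5- or 2-fold spacing, centred on IC90) against autoluminescent M. tuberculosis Erdman in 8 in vitro models. Read-out is OD600, or luminescence for the intracellular and dormancy models, normalised to untreated wells. Hill-fit Einf, AUC25 and GRinf are potency metrics; FIC50 and FIC90 are total Loewe fractional inhibitory concentrations as log2 (negative = synergy).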

[2] = test system: Mycobacterium tuberculosis Erdman (autoluminescent); assay: total FIC90 (Loewe) at 90% inhibition, three-drug combination (log2); higher = more antagonistic
Protocol: as §1

[3] = test system: Mycobacterium tuberculosis Erdman (autoluminescent); assay: Einf, fitted maximum growth inhibition of three-drug combination (fraction); higher = stronger maximal inhibition
Protocol: as §1

[4] = test system: Mycobacterium tuberculosis Erdman (autoluminescent); assay: AUC25, normalised area under dose response up to IC25 (three-drug combination) (fraction (0-1)); higher = more potent at low dose
Protocol: as §1

[5] = test system: Mycobacterium tuberculosis Erdman (autoluminescent); assay: GRinf, maximum normalised growth rate inhibition (three-drug combination) (unitless (-1 to 1)); higher = less effect (negative = killing)
Protocol: as §1

CC(C)/N=c1\cc2n(-c3ccc(Cl)cc3)c3ccccc3nc-2cc1Nc1ccc(Cl)cc1 [clofazimine] + O=[N+]([O-])c1cn2c(n1)OC[C@@H](OCc1ccc(OC(F)(F)F)cc1)C2 [pretomanid] + CO[C@H]1/C=C/O[C@@]2(C)Oc3c(C)c(O)c4c(O)c(c(/C=N/N5CCN(C6CCCC6)CC5)c(O)c4c3C2=O)NC(=O)/C(C)=C\C=C\[C@H](C)[C@H](O)[C@@H](C)[C@@H](O)[C@@H](C)[C@H](OC(C)=O)[C@@H]1C [rifapentine]
Conditions	AUC25, [4]	Einf, [3]	GRinf, [5]	total FIC50, [1]	total FIC90, [2]
in vitro model: acidic pH 5.7, time point: constant (~7 days, model-specific)	0.103	0.899	-0.186	0.105	–
in vitro model: acidic pH 5.7, time point: terminal (~4-5 doublings, model-specific)	0.0882	0.993	-0.236	0.264	0.423
in vitro model: intracellular J774, time point: constant = terminal	–	0.989	-0.655	–	-0.198

Conditions	AUC25, [4]	Einf, [3]	GRinf, [5]	total FIC50, [1]	total FIC90, [2]
in vitro model: butyrate, time point: constant (~7 days, model-specific)	0.108	0.944	-0.17	0.542	0.896
in vitro model: butyrate, time point: terminal (~4-5 doublings, model-specific)	0.0902	0.978	-0.146	0.502	0.795
in vitro model: cholesterol 0.05 mM, time point: constant (~7 days, model-specific)	0.125	0.719	-0.154	1.34	–
in vitro model: cholesterol 0.05 mM, time point: terminal (~4-5 doublings, model-specific)	0.1	0.913	-0.114	1.34	1.38
in vitro model: cholesterol-high 0.2 mM, time point: constant (~7 days, model-specific)	0.101	0.93	-0.434	1.29	2.04
in vitro model: cholesterol-high 0.2 mM, time point: terminal (~4-5 doublings, model-specific)	0.104	1	-0.886	1.49	1.76
in vitro model: dormancy (butyrate + nitrate, low O2), time point: constant (~7 days, model-specific)	0.0611	0.948	-0.0911	0.0191	-1.71
in vitro model: dormancy (butyrate + nitrate, low O2), time point: terminal (~4-5 doublings, model-specific)	0.0501	0.997	-0.374	-0.0775	-0.279
in vitro model: standard 7H9 glycerol, time point: constant = terminal	0.12	0.954	-0.0887	-0.289	1.7
in vitro model: valerate, time point: constant (~7 days, model-specific)	0.155	0.893	-0.158	1.22	–
in vitro model: valerate, time point: terminal (~4-5 doublings, model-specific)	0.106	0.953	0.0119	0.552	1.7

CC(C)/N=c1\cc2n(-c3ccc(Cl)cc3)c3ccccc3nc-2cc1Nc1ccc(Cl)cc1 [clofazimine] + O=[N+]([O-])c1cn2c(n1)OC[C@@H](OCc1ccc(OC(F)(F)F)cc1)C2 [pretomanid] + CO[C@H]1/C=C/O[C@@]2(C)Oc3c(C)c(O)c4c(O)c(c(/C=N/N5CCN(C)CC5)c(O)c4c3C2=O)NC(=O)/C(C)=C\C=C\[C@H](C)[C@H](O)[C@@H](C)[C@@H](O)[C@@H](C)[C@H](OC(C)=O)[C@@H]1C [rifampicin]
Conditions	AUC25, [4]	Einf, [3]	GRinf, [5]	total FIC50, [1]	total FIC90, [2]
in vitro model: acidic pH 5.7, time point: constant (~7 days, model-specific)	0.113	0.916	-0.179	0.218	–
in vitro model: acidic pH 5.7, time point: terminal (~4-5 doublings, model-specific)	0.073	0.989	-0.161	0.575	0.276
in vitro model: intracellular J774, time point: constant = terminal	–	0.992	-0.685	–	-0.529

Conditions	AUC25, [4]	Einf, [3]	GRinf, [5]	total FIC50, [1]	total FIC90, [2]
in vitro model: butyrate, time point: constant (~7 days, model-specific)	0.104	0.936	-0.134	0.432	0.0534
in vitro model: butyrate, time point: terminal (~4-5 doublings, model-specific)	0.0947	0.977	-0.128	0.197	0.399
in vitro model: cholesterol 0.05 mM, time point: constant (~7 days, model-specific)	0.124	0.696	-0.174	1.03	–
in vitro model: cholesterol 0.05 mM, time point: terminal (~4-5 doublings, model-specific)	0.0924	0.844	0.0526	1.18	0.826
in vitro model: cholesterol-high 0.2 mM, time point: constant (~7 days, model-specific)	0.0944	0.891	-0.242	1.29	1.16
in vitro model: cholesterol-high 0.2 mM, time point: terminal (~4-5 doublings, model-specific)	0.0908	1	-0.716	1.57	1.36
in vitro model: dormancy (butyrate + nitrate, low O2), time point: constant (~7 days, model-specific)	0.0988	0.938	0.038	-0.678	-1.51
in vitro model: dormancy (butyrate + nitrate, low O2), time point: terminal (~4-5 doublings, model-specific)	0.0571	0.993	-0.337	-0.503	-0.477
in vitro model: standard 7H9 glycerol, time point: constant = terminal	0.11	0.93	0.0153	-0.349	-0.0486
in vitro model: valerate, time point: constant (~7 days, model-specific)	0.0751	0.857	0.0268	0.706	–
in vitro model: valerate, time point: terminal (~4-5 doublings, model-specific)	0.0551	0.929	0.0406	0.736	0.763

CC(C)/N=c1\cc2n(-c3ccc(Cl)cc3)c3ccccc3nc-2cc1Nc1ccc(Cl)cc1 [clofazimine] + O=[N+]([O-])c1cn2c(n1)OC[C@@H](OCc1ccc(OC(F)(F)F)cc1)C2 [pretomanid] + NC(=O)c1cnccn1 [pyrazinamide]
Conditions	AUC25, [4]	Einf, [3]	GRinf, [5]	total FIC50, [1]	total FIC90, [2]
in vitro model: acidic pH 5.7, time point: constant (~7 days, model-specific)	0.116	0.799	-0.189	-0.0503	–
in vitro model: acidic pH 5.7, time point: terminal (~4-5 doublings, model-specific)	0.0855	0.963	-0.286	-0.211	-0.383
in vitro model: intracellular J774, time point: constant = terminal	–	1	-0.589	–	0.069

Conditions	AUC25, [4]	Einf, [3]	GRinf, [5]	total FIC50, [1]	total FIC90, [2]
in vitro model: butyrate, time point: constant (~7 days, model-specific)	0.117	0.927	-0.101	-0.205	1.93
in vitro model: butyrate, time point: terminal (~4-5 doublings, model-specific)	0.0918	0.967	-0.0731	-0.348	0.119
in vitro model: cholesterol 0.05 mM, time point: constant (~7 days, model-specific)	0.136	0.671	-0.153	–	–
in vitro model: cholesterol 0.05 mM, time point: terminal (~4-5 doublings, model-specific)	0.108	0.917	-0.206	1.04	–
in vitro model: cholesterol-high 0.2 mM, time point: constant (~7 days, model-specific)	0.0983	0.866	-0.131	0.247	–
in vitro model: cholesterol-high 0.2 mM, time point: terminal (~4-5 doublings, model-specific)	0.0869	0.997	-0.572	0.565	0.223
in vitro model: dormancy (butyrate + nitrate, low O2), time point: constant (~7 days, model-specific)	0.0942	0.933	0.139	-1.02	-2
in vitro model: dormancy (butyrate + nitrate, low O2), time point: terminal (~4-5 doublings, model-specific)	0.0486	0.989	-0.2	-0.553	-0.326
in vitro model: standard 7H9 glycerol, time point: constant = terminal	0.128	0.947	-0.335	-0.2	–
in vitro model: valerate, time point: constant (~7 days, model-specific)	0.125	0.874	-0.0963	0.359	–
in vitro model: valerate, time point: terminal (~4-5 doublings, model-specific)	0.0562	0.928	0.0185	0.629	1.17
